Data reported in US8697739B2, “Bicyclic acetyl-CoA carboxylase inhibitors and uses thereof” (Novartis AG, priority 2010, dated 2014).

What was measured:
[1] = molecular target: T1, human acetyl-CoA carboxylase 2 (ACC2) (Homo sapiens, UniProt O00763); test: Acetyl-CoA carboxylase enzyme assay (malonyl-CoA formation by LC/MS/MS); type: biochemical; conditions: recombinant human ACC2 (aa 144-2458); read-out: IC50 ACC2
T1 construct: The cDNA encoding amino acids 144 to 2458 of human acetyl-CoA carboxylase 2; made in house; host or cells: Sf9 insect cells (baculovirus, pFastBac1)
T1 sequence (O00763 144-2458): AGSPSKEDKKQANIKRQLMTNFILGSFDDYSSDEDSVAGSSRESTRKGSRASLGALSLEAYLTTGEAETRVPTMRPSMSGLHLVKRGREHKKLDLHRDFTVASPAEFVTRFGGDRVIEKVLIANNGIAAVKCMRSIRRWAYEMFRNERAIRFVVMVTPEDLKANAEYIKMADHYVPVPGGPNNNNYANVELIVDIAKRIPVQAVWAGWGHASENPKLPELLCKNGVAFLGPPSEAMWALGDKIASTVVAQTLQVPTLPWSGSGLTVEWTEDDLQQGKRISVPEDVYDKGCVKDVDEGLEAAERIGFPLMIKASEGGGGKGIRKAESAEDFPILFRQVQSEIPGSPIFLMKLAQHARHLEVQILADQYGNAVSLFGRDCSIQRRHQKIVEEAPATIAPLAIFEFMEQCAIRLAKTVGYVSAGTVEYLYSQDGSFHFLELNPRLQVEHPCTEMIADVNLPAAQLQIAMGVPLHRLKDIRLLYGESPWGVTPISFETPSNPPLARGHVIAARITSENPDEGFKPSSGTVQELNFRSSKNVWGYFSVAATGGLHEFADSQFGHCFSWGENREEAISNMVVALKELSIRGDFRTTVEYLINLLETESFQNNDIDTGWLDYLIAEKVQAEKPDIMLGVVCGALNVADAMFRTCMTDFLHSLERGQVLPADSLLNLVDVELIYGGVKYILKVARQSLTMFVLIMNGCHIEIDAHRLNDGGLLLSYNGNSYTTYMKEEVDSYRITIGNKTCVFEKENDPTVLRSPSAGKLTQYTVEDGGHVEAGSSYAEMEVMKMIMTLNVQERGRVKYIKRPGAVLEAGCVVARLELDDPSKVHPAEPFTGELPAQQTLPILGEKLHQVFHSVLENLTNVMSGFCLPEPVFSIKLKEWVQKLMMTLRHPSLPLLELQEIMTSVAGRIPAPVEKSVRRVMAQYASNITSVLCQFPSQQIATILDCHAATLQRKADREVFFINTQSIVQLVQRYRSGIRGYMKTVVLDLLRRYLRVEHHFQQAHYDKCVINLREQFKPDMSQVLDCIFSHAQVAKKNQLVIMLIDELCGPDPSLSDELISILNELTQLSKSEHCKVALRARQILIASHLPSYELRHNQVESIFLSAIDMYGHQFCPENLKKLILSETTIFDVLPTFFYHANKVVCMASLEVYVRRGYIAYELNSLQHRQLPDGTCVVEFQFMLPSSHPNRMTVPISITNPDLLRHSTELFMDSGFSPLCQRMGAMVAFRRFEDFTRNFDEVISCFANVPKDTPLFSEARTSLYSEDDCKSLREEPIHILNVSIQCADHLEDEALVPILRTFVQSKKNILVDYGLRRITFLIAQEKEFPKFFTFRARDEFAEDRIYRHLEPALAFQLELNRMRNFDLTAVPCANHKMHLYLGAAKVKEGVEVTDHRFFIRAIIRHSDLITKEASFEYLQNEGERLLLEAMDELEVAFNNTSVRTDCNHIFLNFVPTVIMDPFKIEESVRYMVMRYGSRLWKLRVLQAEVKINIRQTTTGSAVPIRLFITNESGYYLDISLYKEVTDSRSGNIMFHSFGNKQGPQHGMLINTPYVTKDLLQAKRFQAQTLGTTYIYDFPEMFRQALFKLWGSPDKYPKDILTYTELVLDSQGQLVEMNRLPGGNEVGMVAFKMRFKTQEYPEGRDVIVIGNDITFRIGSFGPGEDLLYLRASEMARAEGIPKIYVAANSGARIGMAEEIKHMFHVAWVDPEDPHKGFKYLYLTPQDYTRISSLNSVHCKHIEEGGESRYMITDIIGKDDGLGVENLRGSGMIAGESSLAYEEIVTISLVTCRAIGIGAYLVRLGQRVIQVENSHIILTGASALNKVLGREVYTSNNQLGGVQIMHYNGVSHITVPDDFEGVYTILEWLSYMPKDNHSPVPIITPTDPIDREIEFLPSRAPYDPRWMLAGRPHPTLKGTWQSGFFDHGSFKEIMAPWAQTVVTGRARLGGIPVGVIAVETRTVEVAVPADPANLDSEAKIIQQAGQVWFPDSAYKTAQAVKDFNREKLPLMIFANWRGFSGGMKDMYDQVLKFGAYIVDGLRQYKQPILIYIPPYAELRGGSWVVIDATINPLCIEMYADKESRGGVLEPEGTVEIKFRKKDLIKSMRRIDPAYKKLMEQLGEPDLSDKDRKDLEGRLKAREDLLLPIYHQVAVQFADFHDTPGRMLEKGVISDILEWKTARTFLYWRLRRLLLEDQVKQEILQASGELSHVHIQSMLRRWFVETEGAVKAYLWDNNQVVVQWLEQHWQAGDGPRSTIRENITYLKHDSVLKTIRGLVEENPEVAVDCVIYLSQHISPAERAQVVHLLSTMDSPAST
In short: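 Malonyl-CoA formation was read by LC/MS/MS MRM against a [13C3]-malonyl-CoA internal standard, after acetic acid quench. The enzyme was baculovirus/Sf9-expressed human ACC2 residues 144–2458, given 15 minutes room-temperature compound preincubation in HEPES pH 7.5 buffer with MgCl2, citrate and DTT. Substrate solution held 50 μM acetyl-CoA, 120 μM ATP and 2 mM KHCO3.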

[2] = tested on: HCVcc genotype 2a (JFH-1 strain) virus; test: HCV assay: JFH-1 rLuc infection of Huh 7.5 cells, renilla luciferase readout; type: cell-based; conditions: Hepatitis C virus, Huh7.5; JFH-1 rLuc virus, MOI=0.01, Huh 7.5 cells, 72 hours, luciferase activity reduced by 50%
Experimental: (§1) The effect of compounds on HCV infection was determined in vitro using cell cultured (HCVcc) genotype 2a (JFH-1 strain) virus. A renilla luciferase reporter gene was inserted in the viral genome, the expression of which was under the control of HCV 5′UTR (JFH-1^rLuc). Thus, the inhibition of HCV infection or replication can be indirectly measured by the reduction of luciferase activity in the cells. A specifically adapted hepatoma cell line, Huh 7.5, which allowed higher infectivity of HCV in vitro, was cultured in Dulbecco's modified Eagle's medium (DMEM) supplemented with 2 mM L-glutamine, 0.1 mM non-essential amino acids and 10% heat-inactivated fetal bovine serum. The cells were infected with JFH-1^rLuc virus at an MOI=0.01 and were treated at the same time with serially diluted compounds. After 72 hours, luciferase activities in compound-treated cells were measured using the Renilla Luciferase Assay System (Promega) and were compared to those in untreated control cells. Concentration-dependent inhibition curves were generated, from which EC50 values, the concentrations of compounds at which luciferase activities were reduced by 50% relative to untreated control, were calculated. In parallel, cytotoxicity of compounds was determine by measuring the viability of compound-treated cells using CellTiter 96® AQueous One Solution Cell Proliferation Assay (Promega). CC50 represented the concentration of the compound at which cell viability was reduced by 50% compared to untreated control.

in vitro = type: cell-based; conditions: human
Experimental: as §1

Structure (SMILES) | IC50 [1] [nM] | EC50 [2] [nM] | CC50 at 72 h (in vitro) [nM]
Cn1c(-c2ccccc2)cc2ccc(S(=O)(=O)N[C@H]3CC[C@H](C(=O)N4CCOC[C@@H]4C4CC4)CC3)cc21 [Example 479, N-((1S,4r)-4-((S)-3-cyclopropylmorpholine-4-carbonyl)cyclohexyl)-1-methyl-2-phenyl-1H-indole-6-sulfonamide] | 10 | 1270 | > 33000
Cn1c(-c2ccccc2)cc2ccc(S(=O)(=O)N[C@H]3CC[C@H](C(=O)N4CC5(CN(C(=O)OC(C)(C)C)C5)C4)CC3)cc21 [Example 483, tert-butyl 6-((1r,4r)-4-(1-methyl-2-phenyl-1H-indole-6-sulfonamido)cyclohexanecarbonyl)-2,6-diazaspiro[3.3]heptane-2-carboxylate] | 75 | 40 | 16000
